Data: ChEMBL document CHEMBL1153688, “Design, synthesis, and pharmacological evaluation of dual histamine H2 and gastrin receptor antagonists” (Bioorg Med Chem Lett, 1996)

How the values were obtained:
[1] = molecular target: Histamine H2 receptor (Rattus norvegicus, UniProt P25102); assay: Antagonistic activity for inhibition of histamine H2 receptor from anesthetized rats; format: functional; conditions: read-out: pA2 (converted)
[2] = molecular target: Cholecystokinin receptor (Mus musculus) (UniProt O08786+P56481); assay: Ratio of IC50(gastrin) to IC50(CCK-A); format: protein assay
[3] = molecular target: T1, Cholecystokinin receptor type A (Mus musculus, UniProt O08786); assay: Inhibitory activity against Cholecystokinin type A receptor
T1 sequence (O08786 whole entry): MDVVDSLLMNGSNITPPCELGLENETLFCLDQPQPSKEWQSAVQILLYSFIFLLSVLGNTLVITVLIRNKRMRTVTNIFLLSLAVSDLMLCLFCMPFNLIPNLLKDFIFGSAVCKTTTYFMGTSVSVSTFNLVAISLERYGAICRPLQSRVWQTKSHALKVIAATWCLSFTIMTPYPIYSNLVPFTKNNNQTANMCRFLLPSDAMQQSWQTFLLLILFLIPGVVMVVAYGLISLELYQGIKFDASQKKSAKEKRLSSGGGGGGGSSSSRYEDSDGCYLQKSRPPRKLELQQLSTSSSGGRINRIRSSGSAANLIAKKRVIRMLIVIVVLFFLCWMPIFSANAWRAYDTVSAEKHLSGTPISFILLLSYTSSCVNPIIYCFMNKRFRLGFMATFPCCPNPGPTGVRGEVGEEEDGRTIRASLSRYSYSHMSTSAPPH

[4] = molecular target: T2, Gastrin/cholecystokinin type B receptor (Mus musculus, UniProt P56481); assay: Inhibitory activity against Cholecystokinin type B receptor
T2 sequence (P56481 whole entry): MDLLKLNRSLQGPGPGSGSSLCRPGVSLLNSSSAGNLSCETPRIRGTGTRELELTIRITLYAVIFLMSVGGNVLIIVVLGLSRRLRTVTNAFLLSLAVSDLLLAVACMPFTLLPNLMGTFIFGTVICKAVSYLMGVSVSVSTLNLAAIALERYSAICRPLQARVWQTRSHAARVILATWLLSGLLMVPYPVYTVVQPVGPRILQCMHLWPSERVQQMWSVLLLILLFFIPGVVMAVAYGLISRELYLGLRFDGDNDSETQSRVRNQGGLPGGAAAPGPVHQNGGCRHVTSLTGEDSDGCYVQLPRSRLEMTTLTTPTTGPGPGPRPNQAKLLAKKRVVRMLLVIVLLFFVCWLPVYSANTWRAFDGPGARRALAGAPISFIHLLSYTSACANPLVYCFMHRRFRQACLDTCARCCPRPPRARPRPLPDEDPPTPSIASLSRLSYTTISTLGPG

Chain of Histamine H2 receptor (P25102 whole entry): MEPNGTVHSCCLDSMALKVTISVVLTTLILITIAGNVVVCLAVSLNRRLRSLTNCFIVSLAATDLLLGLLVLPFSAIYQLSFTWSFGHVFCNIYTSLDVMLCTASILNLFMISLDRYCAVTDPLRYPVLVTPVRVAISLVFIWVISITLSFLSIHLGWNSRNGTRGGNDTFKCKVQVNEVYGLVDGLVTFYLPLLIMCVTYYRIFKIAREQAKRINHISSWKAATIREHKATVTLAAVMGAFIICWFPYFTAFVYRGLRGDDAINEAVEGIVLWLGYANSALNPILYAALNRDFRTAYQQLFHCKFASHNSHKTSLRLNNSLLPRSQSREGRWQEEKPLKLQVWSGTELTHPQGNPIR

| SMILES | Kb [1] [µM] | Ratio [2] | IC50 [3] [µM] | IC50 [4] [µM] |
| --- | --- | --- | --- | --- |
| Cc1cccc(NC(=O)NC2N=C(c3ccccc3)c3ccccc3N(CC(=O)NCCCCCC(=O)NCCCOc3cccc(CN4CCCCC4)c3)C2=O)c1 (centres undefined) | 0.398 | 40.6 | 0.65 | 0.8 |
| CN/C(=N/CCSCc1nc[nH]c1C)NC#N [CIMETIDINE] | 0.251 |  |  |  |
| Cc1cccc(NC(=O)N[C@@H]2N=C(c3ccccc3)c3ccccc3N(C)C2=O)c1 [L-365260] |  |  | 11.1 |  |
| Cc1cccc(NC(=O)NC2N=C(c3ccccc3)c3ccccc3N(CC(=O)NCCCC(=O)NCCCOc3cccc(CN4CCCCC4)c3)C2=O)c1 (centres undefined) | 0.794 | 4.3 | 0.9 | 5 |
| Cc1cccc(NC(=O)NC2N=C(c3cccc(OCC(=O)NCCCC(=O)NCCCOc4cccc(CN5CCCCC5)c4)c3)c3ccccc3N(C)C2=O)c1 (centres undefined) | 0.316 | 157 | 9.4 | 0.29 |
| CN1C(=O)[C@H](NC(=O)Nc2cccc(CC(=O)NCCCCCC(=O)NCCCOc3cccc(CN4CCCCC4)c3)c2)N=C(c2ccccc2)c2ccccc21 | 0.631 | 3.1 | 0.34 | 0.092 |
| Cc1cccc(NC(=O)NC2N=C(c3cccc(OCC(=O)NCCCOc4cccc(CN5CCCCC5)c4)c3)c3ccccc3N(C)C2=O)c1 (centres undefined) | 5.01 | 16.1 | 9.2 | 1.7 |
| CN1C(=O)[C@H](NC(=O)Nc2cccc(C(=O)NCCCOc3cccc(CN4CCCCC4)c3)c2)N=C(c2ccccc2)c2ccccc21 | > 10 | 4.5 | 2.5 | 0.6 |
| CN1C(=O)[C@H](NC(=O)Nc2cccc(CC(=O)NCCCC(=O)NCCCOc3cccc(CN4CCCCC4)c3)c2)N=C(c2ccccc2)c2ccccc21 | 0.398 | 2.9 | 0.33 | 0.205 |
| Cc1cccc(NC(=O)NC2N=C(c3ccccc3)c3ccccc3N(CC(=O)NCC(=O)NCCCOc3cccc(CN4CCCCC4)c3)C2=O)c1 (centres undefined) | 6.31 | 0.5 | 0.43 | 3.6 |
| Cc1cccc(NC(=O)NC2N=C(c3ccccc3)c3ccccc3N(CC(=O)NCCCOc3cccc(CN4CCCCC4)c3)C2=O)c1 (centres undefined) | > 10 | 36.8 | 5.7 | 0.54 |
| CN1C(=O)[C@H](NC(=O)Nc2cccc(CC(=O)NCCCOc3cccc(CN4CCCCC4)c3)c2)N=C(c2ccccc2)c2ccccc21 | > 10 | 17.8 | 4.1 | 0.16 |
| CN1C(=O)[C@H](NC(=O)Nc2cccc(C(=O)NCCSCc3csc(N=C(N)N)n3)c2)N=C(c2ccccc2)c2ccccc21 | > 10 | 1 | 0.38 | 0.44 |
| Cc1cccc(NC(=O)NC2N=C(c3cccc(OCC(=O)NCCCCCC(=O)NCCCOc4cccc(CN5CCCCC5)c4)c3)c3ccccc3N(C)C2=O)c1 (centres undefined) | 0.631 | 112 | 3.6 | 0.32 |
| Cc1cccc(NC(=O)NC2N=C(c3ccccc3)c3ccccc3N(CC(=O)NCCSCc3csc(N=C(N)N)n3)C2=O)c1 (centres undefined) | > 10 | 1600 | 4.8 | 0.035 |
| Cc1cccc(NC(=O)NC2N=C(c3ccccc3)c3ccccc3N(CC(=O)NCCC(=O)NCCCOc3cccc(CN4CCCCC4)c3)C2=O)c1 (centres undefined) | 0.794 | 7 | 1.3 | 2.15 |
| Cc1cccc(NC(=O)NC2N=C(c3ccccc3)c3ccccc3N(CC(=O)NCC(=O)NCCSCc3csc(N=C(N)N)n3)C2=O)c1 (centres undefined) | 3.98 | 2.1 | 0.76 | 6.8 |
| CN1C(=O)[C@H](NC(=O)Nc2cccc(CC(=O)NCCSCc3csc(N=C(N)N)n3)c2)N=C(c2ccccc2)c2ccccc21 | > 10 | 3.4 | 0.56 | 0.48 |
| Cc1cccc(NC(=O)NC2N=C(c3cccc(OCC(=O)NCCSCc4csc(N=C(N)N)n4)c3)c3ccccc3N(C)C2=O)c1 (centres undefined) | 5.01 | 40 | 5.4 | 0.35 |
| CN1C(=O)[C@H](NC(=O)Nc2cccc(CC(=O)NCCC(=O)NCCCOc3cccc(CN4CCCCC4)c3)c2)N=C(c2ccccc2)c2ccccc21 | 0.251 | 1.4 | 0.19 | 0.29 |
| Cc1cccc(NC(=O)NC2N=C(c3cccc(OCC(=O)NCCC(=O)NCCCOc4cccc(CN5CCCCC5)c4)c3)c3ccccc3N(C)C2=O)c1 (centres undefined) | 0.501 | 75 | 15 | 0.76 |

Further lines, results first:

| Kb [1] [µM] | Ratio [2] | IC50 [3] [µM] | IC50 [4] [µM] | SMILES |
| --- | --- | --- | --- | --- |
| 0.501 | 1.4 | 0.33 | 0.33 | CN1C(=O)[C@H](NC(=O)Nc2cccc(CC(=O)NCCCC(=O)NCCSCc3csc(N=C(N)N)n3)c2)N=C(c2ccccc2)c2ccccc21 |
| 1 | 90.8 | 1.09 | 0.31 | Cc1cccc(NC(=O)NC2N=C(c3cccc(OCC(=O)NCC(=O)NCCSCc4csc(N=C(N)N)n4)c3)c3ccccc3N(C)C2=O)c1 (centres undefined) |
| 0.631 | 150 | 2.1 | 0.215 | Cc1cccc(NC(=O)NC2N=C(c3cccc(OCC(=O)NCCCC(=O)NCCSCc4csc(N=C(N)N)n4)c3)c3ccccc3N(C)C2=O)c1 (centres undefined) |
| 1 | 4.2 | 0.19 | 0.255 | CN1C(=O)[C@H](NC(=O)Nc2cccc(CC(=O)NCCCCCC(=O)NCCSCc3csc(N=C(N)N)n3)c2)N=C(c2ccccc2)c2ccccc21 |
| 0.398 | 1.5 | 0.12 | 0.2 | CN1C(=O)[C@H](NC(=O)Nc2cccc(CC(=O)NCCC(=O)NCCSCc3csc(N=C(N)N)n3)c2)N=C(c2ccccc2)c2ccccc21 |
| 3.16 | 3.8 | 0.72 | 6.6 | Cc1cccc(NC(=O)NC2N=C(c3ccccc3)c3ccccc3N(CC(=O)NCCCC(=O)NCCSCc3csc(N=C(N)N)n3)C2=O)c1 (centres undefined) |
| 1.26 | 5.2 | 0.39 | 0.43 | Cc1cccc(NC(=O)NC2N=C(c3ccccc3)c3ccccc3N(CC(=O)NCCC(=O)NCCSCc3csc(N=C(N)N)n3)C2=O)c1 (centres undefined) |
| 0.794 | 80 | 2 | 0.4 | Cc1cccc(NC(=O)NC2N=C(c3cccc(OCC(=O)NCCC(=O)NCCSCc4csc(N=C(N)N)n4)c3)c3ccccc3N(C)C2=O)c1 (centres undefined) |
| 0.501 | 82.5 | 5.2 | 0.55 | Cc1cccc(NC(=O)NC2N=C(c3cccc(OCC(=O)NCC(=O)NCCCOc4cccc(CN5CCCCC5)c4)c3)c3ccccc3N(C)C2=O)c1 (centres undefined) |
